The values that follow come from the NIST ThermoML archive (doi:10.1021/acs.jced.7b00945).

Numbers after ± are expanded uncertainties.

The nature of data set [1]: refractive index (Na D-line) (dimensionless); wn = mass fraction of the nth substance listed. As to conditions: 303 K, 100 kPa, Liquid, Standard Abbe refractometry.
A short description of data set [2]: refractive index (Na D-line) (dimensionless). As to conditions: 303 K; 100 kPa; Liquid; Standard Abbe refractometry.

`OCCOCCO` [diethylene glycol] + O: the refractive index in data set [1] (w2 = 0.11) is 1.43408 ± 0.00043; in data set [1] (w2 = 0.2) it was 1.42406 ± 0.00042; in data set [1] (w2 = 0.3) it was 1.41341 ± 0.00041; in data set [1] (w2 = 0.41), 1.40107 ± 0.00042; in data set [1] (w2 = 0.5), 1.38922 ± 0.00041; in data set [1] (w2 = 0.6) it was 1.37817 ± 0.0004. Further, the refractive index in data set [1] (w2 = 0.7) worked out at 1.36617 ± 0.0004; in data set [1] (w2 = 0.8) it was 1.35413 ± 0.0004; in data set [1] (w2 = 0.9) it was 1.34259 ± 0.00039.

For `O` [water] + OCCO, the refractive index in data set [1] (w1 = 1) was 1.33179 ± 0.00032.

Turning to `OCCO` [1,2-ethanediol] + O, the refractive index in data set [1] (w2 = 0.1) came out at 1.4196 ± 0.00038; in data set [1] (w2 = 0.2), 1.41005 ± 0.00038; in data set [1] (w2 = 0.3) it was 1.4008 ± 0.00038; in data set [1] (w2 = 0.41), 1.38994 ± 0.00038; in data set [1] (w2 = 0.5) it was 1.38106 ± 0.00038; in data set [1] (w2 = 0.6), 1.37126 ± 0.00038. Besides, the refractive index in data set [1] (w2 = 0.7) was 1.36074 ± 0.00038; in data set [1] (w2 = 0.8), 1.35122 ± 0.00038; in data set [1] (w2 = 0.89), 1.34168 ± 0.00037.

As for `O` [water] + OCCOCCOCCOCCO, in data set [1] (w1 = 1), the refractive index amounted to 1.33179 ± 0.00032.

Take `O` [water]: the refractive index in data set [2] worked out at 1.33179 ± 0.00032.

In the case of `O` [water] + OCCOCCO, the refractive index in data set [1] (w1 = 1) is given as 1.33179 ± 0.00032.

Turning to `O` [water] + OCCOCCOCCO, in data set [1] (w1 = 1), the refractive index is given as 1.33179 ± 0.00032.

For the molecule `OCCOCCOCCO` [triethylene glycol] + O, the refractive index in data set [1] (w2 = 0.1) came to 1.44204 ± 0.00042; in data set [1] (w2 = 0.21) it was 1.43047 ± 0.00042; in data set [1] (w2 = 0.3), 1.41992 ± 0.00042; in data set [1] (w2 = 0.41) it was 1.40643 ± 0.00043; in data set [1] (w2 = 0.5), 1.39413 ± 0.00042; in data set [1] (w2 = 0.6), 1.38175 ± 0.00042. The refractive index in data set [1] (w2 = 0.7) is 1.36838 ± 0.00041; in data set [1] (w2 = 0.8) it was 1.35616 ± 0.0004; in data set [1] (w2 = 0.9) it was 1.34378 ± 0.0004.

Broadly, the refractive index is the speed of light in vacuum divided by its phase velocity in the sample.
